Measurements from US20070015725A1, “2-azapurine compounds and their uses” (Roche Diagnostics, GMBH, priority 1999, published 2007).
In the oligonucleotide strings, read from the 5' end, every base follows the letter of its sugar. An asterisk marks phosphorothioate; unmarked linkages are phosphodiester. Other units and linkages are bracketed, terminal groups are in braces. A string of capitals states the bases alone. [z2A] = 2-aza-2'-deoxyadenosine; d = 2'-deoxy (DNA)

Assays:
oligonucleotide duplexes = assay: Tm values and thermodynamic parameters of duplex formation (absorbance vs. temperature melting curves); assay type: binding; details: for Tm / ΔG / ΔH / ΔS: 10 mM Na-cacodylate, 100 mM NaCl, 10 mM MgCl2, pH 7; for Tm: 5 μM single strand concentration; for ΔG: duplex formation (ΔG°298); for ΔG / ΔH / ΔS: 5 μM single strand, MeltWin 3.0; for ΔH / ΔS: duplex formation
Procedure: Determination of melting curves and thermodynamics: Absorbance vs. temperature profiles were measured on Cary 1 or 1E spectrophotometers (Varian, Australia) with a Cary thermoelectrical controller. […] 3.0. Circular dichroism (CD) spectra were recorded on a Jasco 600 (Jasco, Japan) spectropolarimeter, a thermostatically controlled bath (Lauda RCS-6) in a 1-cm cuvette.

natural nucleobases = details: cited from earlier work

Molecule | Tm (oligonucleotide duplexes) [°C] | ΔG (oligonucleotide duplexes) [kJ/mol] | ΔH (oligonucleotide duplexes) [kJ/mol] | ΔS (oligonucleotide duplexes) [cal/K mol] | also measured
5′-d(TAGGTC6ATACT) 3′-d(ATCCAGGTATGA): duplex SEQ ID NO: 3 with SEQ ID NO: 4; 6: z^2Ad; one z^2Ad-dG pair (chain 1 dTdAdGdGdTdCd[z2A]dAdTdAdCdT; chain 2: unmodified DNA) | 46 | -41.4 | -347 | −236 | 
5′-d(TAGGTC6ATACT) 3′-d(ATCCAGTTATGA): duplex SEQ ID NO: 3 with SEQ ID NO: 2; 6: z^2Ad; one z^2Ad-dT pair (chain 1 TAGGTCAATACT; chain 1: DNA, [z2A] at 7, backbone not given here; chain 2: unmodified DNA) | 42 | -38.5 | -356 | −245 | 
5′-d(TAGGTC66TACT) 3′-d(ATCCAGAAATGA): duplex SEQ ID NO: 5 with SEQ ID NO: 6; 6: z^2Ad; two z^2Ad-dA pairs (chain 1 TAGGTCNNTACT; z2Ad modified nucleosides; modified_base (7)..(8) n = 2-Aza 2′-deoxyadenosine) | 25 | -23.8 | -205 | −141 | 
5′-d(TAGGTC66TACT) 3′-d(ATCCAGCCATGA): duplex SEQ ID NO: 5 with SEQ ID NO: 7; 6: z^2Ad; two z^2Ad-dC pairs (chain 1 TAGGTCNNTACT; z2Ad modified nucleosides; modified_base (7)..(8) n = 2-Aza 2′-deoxyadenosine) | 20 | -23 | -172 | −113 | 
5′-d(TAGGTC66TACT) 3′-d(ATCCAGGGATGA): duplex SEQ ID NO: 5 with SEQ ID NO: 8; 6: z^2Ad; two z^2Ad-dG pairs (chain 1 TAGGTCNNTACT; z2Ad modified nucleosides; modified_base (7)..(8) n = 2-Aza 2′-deoxyadenosine) | 46 | -42.3 | -310 | −206 | 
5′-d(TAGGTC66TACT) 3′-d(ATCCAGTTATGA): duplex SEQ ID NO: 5 with SEQ ID NO: 2; 6: z^2Ad; two z^2Ad-dT pairs (chain 1 dTdAdGdGdTdCd[z2A]d[z2A]dTdAdCdT; chain 2: unmodified DNA) | 37 | -32.2 | -318 | −219 | 
5′-d(TAGGTCAATACT) 3′-d(ATCCAGGGATGA): unmodified duplex SEQ ID NO: 1 with SEQ ID NO: 8; two dA-dG mismatches (unmodified DNA) [reference compound] | 36 | -31 | -197 | −127 | 
5′-d(TAGGTCAATACT) 3′-d(ATCCAGTTATGA): unmodified standard duplex, SEQ ID NO: 1 with SEQ ID NO: 2 (= SEQ ID NO: 10) (listed as DNA, chemistry not fully specified; one strand is listed 3' to 5') [reference compound] | 46 | -43.5 | -343 | −230 | Tm (oligonucleotide duplexes; listed as 5′-d(TAGGTCAATACT) 5′-d(AGTATTGACCTA)): 47 °C
5′-d(TAGGTCGGTACT) 3′-d(ATCCAGCCATGA): unmodified duplex SEQ ID NO: 9 with SEQ ID NO: 7; two G-C pairs (listed as DNA, chemistry not fully specified; one strand is listed 3' to 5') [reference compound] | 54 |  |  |  | 
Nc1nnnc2c1ncn2[C@H]1C[C@H](O)[C@@H](CO)O1 [Compound 2, 4-Amino-7-(2-deoxy-β-D-erythro-pentofuranosyl)-7H-imidazo[4,5-d][1,2,3]-triazine] |  |  |  |  | base pairing with 2′-deoxyguanosine (dG) (oligonucleotide duplexes): specifically stable base pairs; base pairing with dT, dC and dA (oligonucleotide duplexes): much less stable base pairs
O=c1[nH]nnc2c1ncn2[C@H]1C[C@H](O)[C@@H](CO)O1 [Compound 3, 7-(2-deoxy-β-D-erythro-pentofuranosyl)-7H-imidazo[4,5-d][1,2,3]-triazin-4-one] |  |  |  |  | stability of the base pair I^Az/G, less than the base pair A/T (natural nucleobases): 9 °; stability of the base pair I^Az/G, less than the regular base pair C/G (natural nucleobases): 13 °
OC[C@H]1O[C@@H](N2CNc3c2nnn2ccnc32)C[C@@H]1O [Compound 7, 3-(2-Deoxy-β-D-erythro-pentofuranosyl)-1H-diimidazo[1,2-c:4′,5′-e][1,2,3]-triazine] |  |  |  |  | melting point: 151 to 152 °C (dec.)
CC(C)CN(C=Nc1nnnc2c1ncn2[C@H]1C[C@H](O)[C@@H](CO)O1)CC(C)C [Compound 9b, 7-(2-Deoxy-β-D-erythro-pentofuranosyl)-4-{[(di-isobutylamino)methylidene]-amino}-7H-imidazo[4,5-d][1,2,3]-triazine] |  |  |  |  | melting point: 138 to 140 °C
CCCCN(C=Nc1nnnc2c1ncn2[C@H]1C[C@H](O)[C@@H](CO)O1)CCCC [Compound 9c, 7-(2-Deoxy-β-D-erythro-pentofuranosyl)-4-{[(di-n-butylamino)methylidene]-amino}-7H-imidazo[4,5-d][1,2,3]-triazine] |  |  |  |  | melting point: 107 to 109 °C
